Assay [1] deals with PDE4 binding sites in wild-type mouse brain membranes. Kind of assay: [3H]-rolipram radioligand binding to brain membranes. The following applies: wild-type.
Protocol: Mice were killed by decapitation, and the brains were immediately dissected on ice and homogenized in binding buffer using a Polytron homogenizer (Brinkman Instruments, Westbury, NY). The membrane fraction of the homogenate was obtained by centrifugation at 15,000 × g for 15 min, and resuspension of the pellet in the binding buffer.
Mice were killed by decapitation, and the brains were immediately dissected on ice and homogenized in binding buffer (50 mM Tris-HCl, 5 mM MgCl2, pH 7.5) using a Polytron homogenizer (Brinkman Instruments, Westbury, NY). The membrane fraction of the homogenate was obtained by centrifugation at 15,000 g for 15 min, and resuspension of the pellet in the binding buffer^29.
At the end of the incubation, reactions were stopped by adding 5 ml of the ice-cold binding buffer and rapid vacuum filtration through glass fiber filters that had been soaked in 0.3% polyethyleneimine. The filters were then washed twice with 5 ml of the ice-cold binding buffer, and discs of filter paper were collected for measurement of radioactivity by liquid scintillation counting.
The next assay concerns wild-type mice. Description: Y-maze spontaneous alternation test. Type of assay: in vivo, mouse. As to conditions: oral gavage 1 h prior to test.
In another assay the test system is humanized PDE4D mice. Description: Scopolamine-induced memory impairment in novel object recognition, 1 h inter-trial interval. The assay is classed as in vivo, mouse. On the procedure:
The novel object recognition test was performed as described elsewhere. […] The duration each animal spent exploring the objects was recorded. Time spent exploring the identical objects in T1 was recorded as a1 and a2; time spent exploring the familiar and the novel objects in T2 was recorded as “a” and “b”, respectively. The following variables were calculated: e1 = a1 + a2, e2 = a + b, the relative discrimination index d2 = (b–a)/e2.
For the scopolamine-induced memory impairment models, a single dose of scopolamine (0.1 mg/kg, IP) was administered 30 min before the training session of the NOR. Animals treated with H-89 or vehicle were implanted with 26-gauge guide cannula unilaterally (AP −0.2 mm from Bregma, ML +1 mm from the midline, DV−2mm from skull surface) and rested for a week before any tests.
Novel object recognition. Mice were handled for 3-5 min for 5 days in a row. The novel object recognition test was performed in a Plexiglas open field box (L30 cm, W50 cm, H40 cm) as described elsewhere^64,65. Briefly, the task procedure consists of three phases: habituation, training (T1), and testing (T2). In the habituation phase (day 1), each animal is allowed to freely explore the apparatus for 10 min; then the animal is returned to its home cage. During the training phase (day 2), a single animal is placed in the center of the open field containing two identical objects located on the diagonal of the field, and allowed to explore for 5 min. After a retention interval after T1 of 24 h (long-term recall) or 1 h (scopolamine-impairment model), the animal was subjected to the T2 testing phase for 5 min, during which one familiar object and one novel object were presented. […] The duration each animal spent exploring the objects was recorded. Time spent exploring the identical objects in T1 was recorded as a1 and a2; time spent exploring the familiar and the novel objects in T2 was recorded as ‘a’ and ‘b’, respectively. The following variables were calculated: e1 = a1 + a2, e2 = a + b, the relative discrimination index d2 = (b – a)/e2.

For assay [2], the system named is pCREB, BDNF, pSynapsin, PSD95 in humanized PDE4D mice. Kind of assay: Immunoblot of hippocampal plasticity-related proteins. The assay is classed as in vivo, mouse. The protocol:
Hippocampal tissues were treated with lysis buffer for protein extraction. Then, 10–30 μg protein was separated using gel electrophoresis and transferred to polyvinylidene difluoride membranes, blocked with blocking buffer, and incubated with primary antibodies overnight at 4 °C. Labeled protein bands were detected using the enhanced chemiluminescence method and quantified using Quantity One 1-D Analysis Software.
Hippocampal tissues were lysed with RIPA buffer containing protease and phosphatase inhibitors and centrifuged at 13,000 rpm for 30 min at 4 °C. Aliquots of supernatant containing 10-30 μg protein were separated using 10% SDS-PAGE as described previously^66. Proteins from the gels were transferred to polyvinylidene difluoride membranes, blocked with blocking buffer (phosphate buffered saline containing 3% BSA and 0.1% sodium azide), and incubated with primary antibodies overnight at 4°C (phospho-CREB at Ser 133 (# ab32096, diluted 1:1000, abcam, Cambridge, MA), CREB (# sc-186, diluted 1:200, Santa Cruz Biotechnology, Dallas, Texas), β -actin (Catalog # ab8227, diluted 1:2000, abcam, Cambridge, MA)), Synapsin (#2312, diluted 1:1000, Cell Signaling Technology), Phospho-synapsin (#2311, diluted […], Cell Signaling Technology ), and PSD-95 (#2507, diluted 1:1000, Cell Signaling Technology, Danvers, MA). Labeled protein bands were detected using the enhanced chemiluminescence (ECL) method and quantified using Quantity One 1-D Analysis Software.
(A western blot detects proteins with antibodies after separation by electrophoresis.)

Setting [3] is: repeated oral dosing 14 days, hPDE4D mice.

Read-outs that look alike come from different tables or passages of the source.

Protocol for wild-type mice: The test consists of a single 5 min trial, in which the mouse was allowed to explore all three arms of the Y-maze [31]. Spontaneous alternation (%) was defined as consecutive entries in three different arms, divided by the number of possible alternations (total arm entries minus 2).
Y-maze spontaneous alternation test. The Y-maze apparatus made of matt blue Plexiglas had three identical arms (L 40 cm, W 5 cm, H 15 cm) placed at 120° from each other. The test consisted of a single 5 min trial, in which the mouse was allowed to explore all three arms of the Y-maze. The start arm was varied between animals to avoid placement bias. Spontaneous Alternation (%) was defined as consecutive entries in 3 different arms, divided by the number of possible alternations (total arm entries minus 2). Mice with less than 8 arm entries during the 5-min trial were excluded from the analysis.

On to `O=C(O)Cc1ccc(Cc2cc(-c3cccc(Cl)c3)nc(C(F)(F)F)c2)cc1` [BPN14770], for which the Ki in assay [1] (inhibition of 2 nM [3H]-rolipram binding, read-out: One-site Ki) is 124 ± 14.1 nM. Further, in assay [1] (inhibition of [3H]-rolipram binding, read-out: Two-site Ki1), the Ki turned out to be 79.7 ± 17.1 nM. Besides, in assay [1] (inhibition of [3H]-rolipram binding, read-out: Two-site Ki2), the Ki is 622 ± 110 nM. Further, the “MED for improved % alternation in Y-maze” value in the assay with wild-type mice stood at 1 mg/kg. Also, the “MED for reversal of scopolamine memory deficit” value in the assay with humanized PDE4D mice (acute administration 30 min prior to scopolamine, NOR 1 h inter-trial interval) is listed as 0.03 mg/kg. In the assay on humanized PDE4D mice (repeated treatment for 14 days), the “memory benefit in the scopolamine impairment model with repeated dosing” value is reported as “maintained with repeated dosing”. The “hippocampal CREB phosphorylation or BDNF expression after single acute dose” value in assay [2] (1 h after dosing, data not shown) is “no change”. For the same molecule, the “synapsin phosphorylation in prefrontal cortex and cortex” value in assay [2] (hPDE4D mice, repeated dosing, data not shown) is “increased phosphorylation of synapsin was also observed”. For the same molecule, in assay [2] (repeated dosing, 0.03 mg/kg), the “increase in hippocampal PSD95” value was determined as 1.4 fold and the “increase in hippocampal phosphorylation of synapsin” value amounted to 1.5 fold. Further, in assay [2] (setting [3]), the “elevation of hippocampal BDNF” value was determined as 2.1 fold and the “elevation of hippocampal CREB phosphorylation” value came to 2.3 fold.

Values taken from paper PMC6135860 (Neuropsychopharmacology, 2018).
